From US20100197628A1, “METHODS OF TREATING PSYCHIATRIC, SUBSTANCE ABUSE, AND OTHER DISORDERS USING COMBINATIONS CONTAINING OMEGA-3 FATTY ACIDS” (priority 2003, published 2010) come the findings set out here.

Entries after “also recorded” stand apart in the source; their conditions may differ.

For one data set, the system named is male Sprague-Dawley rats. Briefly: Forced swim test (FST): latency to become immobile and behavioral sampling. As to conditions: re-test. Type of data set: in vivo, rat. Here is the method: The behavioral effects of the combination of uridine and omega-3 fatty acids were also evaluated in rats using the forced swim test (FST). This assay identifies in rodents treatments that have antidepressant effects in humans (Porsolt et al. Nature 266:730-732 1977; Carlezon et al. Biol. Psychiatry 51:882-889, 2002). Uridine was administered using systemic injection while omega-3 fatty acids were administered by supplementation within the diet for various periods of time (3, 10, or 30 days). The effects of uridine in rats maintained on the omega-3 fatty acid-enriched diet were also evaluated to determine if these effects were additive. […] The efficacy of each treatment in the FST was evaluated using two separate scoring methods: latency to become immobile, a simple and rapid method that identifies agents with antidepressant effects ([…] et al. J Neurosci 21:7397-7403 2001), and behavioral sampling, a more complex method that differentiates antidepressant drugs according to their pharmacological mechanisms (Detke et al. Psychopharmacology 121:66-72 1995). Finally, treatments with antidepressant-like effects in the FST were evaluated for non-specific effects on activity in an open field, which might complicate interpretation of the data from the swimming studies. Rats: A total of 197 male Sprague-Dawley rats (Charles River Laboratories, Boston Mass.) were used in these studies. The rats were housed in groups of four and weighed 325-375 gm at the time of behavioral testing. Rats were maintained on a 12 h light (0700-1900 h)-12 h dark cycle with free access to food and water except during testing. Experiments were conducted in accordance with the 1996 Guide for the Care and Use of Laboratory Animals (NIH) and McLean Hospital policies. Drugs: Dosages of desipramine HCl (DMI), fluoxetine HCl (FLX), citalopram HBr (CIT), and uridine (URI) were administered in a distilled water vehicle (VEH) at a volume of 1 cc/kg. All drugs were purchased from RBI-Sigma (St. Louis, Mo.) except CIT, which was a gift of Forest Laboratories (New York, N.Y.). […] The diets were equivalent in overall fat, protein, carbohydrate, and caloric content. Forced Swim Test (FST): One hundred-sixty seven rats were used in the FST studies, which were conducted as described previously (Carlezon et al. Biol. Psychiatry 51:882-889, 2002) with minor modifications. The FST is a two-day procedure in which rats swim under conditions in which escape is not possible. On the first day, rats are placed in clear, 65 cm tall-25 cm diameter cylinders filled to 48 cm with 25° C. water. The rats initially struggle to escape from the water, but eventually they adopt a posture of immobility in which they make only the movements necessary to keep their heads above water. After 15 min of forced swimming, the rats are removed from the water, dried with towels, and placed in a warmed enclosure for 30 min. The cylinders are emptied and cleaned between rats. When the rats are re-tested 24 hours later under identical conditions in 5 min sessions, immobility is increased. Treatment with standard antidepressant drugs within the 24 hr period between the first exposure to forced swimming and re-testing can attenuate facilitated immobility, an effect correlated with antidepressant efficacy in humans (Porsolt et al. Nature 266:730-732 1977; Detke et al. Psychopharmacology 121:66-72 1995, Carlezon et al. Biol. Psychiatry 51:882-889, 2002). Rats tested with DMI, FLX, CIT, or URI received 3 separate intraperitoneal (IP) injections of drug (or VEH), at 1 hr, 19 hr, and 23 hr after the first exposure to forced swimming. This commonly used regimen is sensitive to the antidepressant-like effects of many standard agents (Porsolt et al. Nature 266:730-732 1977; Detke et al. Psychopharmacology 121:66-72 1995; Carlezon et al. Biol. Psychiatry 51:882-889, 2002). […] There were 7-12 rats per treatment condition, and separate rats were used for each treatment regimen. […]

The nature of data set [1]: Weights of the rats at the time of the re-test. Type of data set: in vivo, rat. As to conditions: FST studies. How it is done: Rats: A total of 197 male Sprague-Dawley rats (Charles River Laboratories, Boston Mass.) were used in these studies. The rats were housed in groups of four and weighed 325-375 gm at the time of behavioral testing. Rats were maintained on a 12 h light (0700-1900 h)-12 h dark cycle with free access to food and water except during testing. Experiments were conducted in accordance with the 1996 Guide for the Care and Use of Laboratory Animals (NIH) and McLean Hospital policies.

On to `O=c1ccn([C@@H]2O[C@H](CO)[C@@H](O)[C@H]2O)c(=O)[nH]1` [URI, uridine], for which the “latency to become immobile” value in the data set on male Sprague-Dawley rats (URI 71.7 mg/kg IP) is recorded as “not”. Besides, the “latency to become immobile” value in the data set on male Sprague-Dawley rats (URI 130 mg/kg IP) is “not”. In the data set on male Sprague-Dawley rats (URI 239 mg/kg IP), the immobility result is “reduced immobility”, the “latency to become immobile” value was “increased latencies” and the swimming behaviors result is given as “increased swimming behaviors”. For the same molecule, in the data set with male Sprague-Dawley rats (URI alone 71.7, 130, 239 mg/kg IP), the “latency to become immobile, effect over doses” value was “dose-dependent effects; also recorded: dose-dependently increased latencies to become immobile”. Further, in the data set with male Sprague-Dawley rats (URI alone 71.7-239 mg/kg IP), the occurrences of climbing entry is “without affecting climbing”; the “occurrences of immobility, effect over doses” value is “significantly affected; also recorded: dose-dependently decreased immobility”; the “occurrences of swimming, effect over doses” value is given as “significantly affected; also recorded: increased swimming”. Further, in data set [1], the “weights of the rats” value was “did not affect”.
